Measured values as given in ChEMBL document CHEMBL5725589, “Heterocyclic compounds as PI3K-γ inhibitors” (2018).

Key:
[1] = molecular target: Tyrosine-protein kinase JAK1 (Homo sapiens, UniProt P23458); assay: In Vitro JAK Kinase Assay: Compounds herein were tested for inhibitory activity of JAK targets according to the following in vitro assay described in Park et al., Analytical Biochemistry 1999, 269, 94-104. The catalytic domains of human JAK1 (a.a. 837-1142), JAK2 (a.a. 828-1132) and JAK3 (a.a. 781-1124) were expressed using baculovirus in insect cells and purified. The catalytic activity of JAK1 …
Sequence of Tyrosine-protein kinase JAK1 (P23458 whole entry, the tested form may be a part, canonical isoform): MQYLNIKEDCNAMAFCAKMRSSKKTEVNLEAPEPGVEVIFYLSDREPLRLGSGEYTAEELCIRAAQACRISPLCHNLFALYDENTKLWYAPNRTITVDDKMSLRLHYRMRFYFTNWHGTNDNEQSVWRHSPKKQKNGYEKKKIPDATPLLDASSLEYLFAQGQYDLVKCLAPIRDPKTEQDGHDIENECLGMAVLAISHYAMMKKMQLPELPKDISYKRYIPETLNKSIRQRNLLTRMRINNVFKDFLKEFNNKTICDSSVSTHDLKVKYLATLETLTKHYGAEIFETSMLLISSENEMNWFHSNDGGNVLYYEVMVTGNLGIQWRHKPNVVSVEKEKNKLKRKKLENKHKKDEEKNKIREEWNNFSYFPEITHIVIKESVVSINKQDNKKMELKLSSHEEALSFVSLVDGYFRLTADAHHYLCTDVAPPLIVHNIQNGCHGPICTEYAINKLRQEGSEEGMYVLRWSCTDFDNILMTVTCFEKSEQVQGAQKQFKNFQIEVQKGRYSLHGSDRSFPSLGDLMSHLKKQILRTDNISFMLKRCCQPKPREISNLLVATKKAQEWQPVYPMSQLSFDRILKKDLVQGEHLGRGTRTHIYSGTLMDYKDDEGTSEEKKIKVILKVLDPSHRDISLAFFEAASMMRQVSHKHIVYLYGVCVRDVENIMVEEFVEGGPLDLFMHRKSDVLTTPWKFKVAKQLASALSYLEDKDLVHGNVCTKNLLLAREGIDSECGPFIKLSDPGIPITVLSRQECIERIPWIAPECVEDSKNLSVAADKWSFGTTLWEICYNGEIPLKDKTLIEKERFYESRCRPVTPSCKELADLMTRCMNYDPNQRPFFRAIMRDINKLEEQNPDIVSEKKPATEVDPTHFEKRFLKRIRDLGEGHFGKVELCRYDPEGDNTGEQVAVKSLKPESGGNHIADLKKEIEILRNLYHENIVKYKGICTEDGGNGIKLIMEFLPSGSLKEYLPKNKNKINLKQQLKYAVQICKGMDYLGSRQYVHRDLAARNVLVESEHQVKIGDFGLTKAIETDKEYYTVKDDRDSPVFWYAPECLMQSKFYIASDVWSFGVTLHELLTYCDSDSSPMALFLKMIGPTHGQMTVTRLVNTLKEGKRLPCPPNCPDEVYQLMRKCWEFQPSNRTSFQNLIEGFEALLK

[2] = molecular target: Phosphatidylinositol 4,5-bisphosphate 3-kinase catalytic subunit gamma isoform (Homo sapiens, UniProt P48736); assay: PI3Kγ (p110γ) Recombinant Human Protein was purchased from Life technology (Grand Island, N.Y.). […] The final concentration of DMSO in the assay was 2%. […] ATP, 13 nM PI3Kγ. […] The final concentration of SPA beads is 1.0 mg/mL.
Sequence of Phosphatidylinositol 4,5-bisphosphate 3-kinase catalytic subunit gamma isoform (P48736 whole entry, canonical isoform): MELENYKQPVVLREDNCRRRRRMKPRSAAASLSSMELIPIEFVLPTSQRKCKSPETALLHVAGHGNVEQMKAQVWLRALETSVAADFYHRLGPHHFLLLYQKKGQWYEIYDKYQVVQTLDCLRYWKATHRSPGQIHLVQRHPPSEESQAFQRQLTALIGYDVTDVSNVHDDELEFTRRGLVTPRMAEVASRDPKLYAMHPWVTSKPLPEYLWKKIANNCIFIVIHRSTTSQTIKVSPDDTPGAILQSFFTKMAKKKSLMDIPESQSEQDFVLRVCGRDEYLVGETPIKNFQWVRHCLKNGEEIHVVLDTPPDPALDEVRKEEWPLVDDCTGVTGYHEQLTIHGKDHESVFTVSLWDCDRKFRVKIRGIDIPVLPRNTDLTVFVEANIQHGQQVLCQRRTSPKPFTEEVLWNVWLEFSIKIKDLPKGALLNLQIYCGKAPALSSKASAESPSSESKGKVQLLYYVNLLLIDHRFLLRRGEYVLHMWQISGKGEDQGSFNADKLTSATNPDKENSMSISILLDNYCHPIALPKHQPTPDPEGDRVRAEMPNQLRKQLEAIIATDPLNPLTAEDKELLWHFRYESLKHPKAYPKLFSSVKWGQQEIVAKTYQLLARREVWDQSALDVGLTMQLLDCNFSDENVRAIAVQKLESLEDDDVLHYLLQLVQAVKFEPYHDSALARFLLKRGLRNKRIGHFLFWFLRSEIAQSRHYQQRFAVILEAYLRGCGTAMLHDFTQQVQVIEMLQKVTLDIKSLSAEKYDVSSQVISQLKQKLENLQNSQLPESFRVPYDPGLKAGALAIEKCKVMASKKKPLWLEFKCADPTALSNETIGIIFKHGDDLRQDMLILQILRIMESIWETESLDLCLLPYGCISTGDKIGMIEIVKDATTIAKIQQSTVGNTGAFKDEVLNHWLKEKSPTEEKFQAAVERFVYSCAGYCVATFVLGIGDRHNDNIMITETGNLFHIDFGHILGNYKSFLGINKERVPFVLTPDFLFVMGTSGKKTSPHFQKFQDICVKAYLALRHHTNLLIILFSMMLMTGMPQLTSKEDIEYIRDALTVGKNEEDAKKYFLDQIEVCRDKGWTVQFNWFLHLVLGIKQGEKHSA

[3] = molecular target: T1, Phosphatidylinositol 4,5-bisphosphate 3-kinase catalytic subunit delta isoform (Homo sapiens, UniProt O00329); assay: PI3Kδ (p110δ/p85α) Recombinant Human Protein was purchased from Eurofins (St Charles, Mo.). […] The final concentration of DMSO in the assay was 2%. […] ATP, 3.4 nM PI3Kδ. […] The final concentration of SPA beads is 1.0 mg/mL.
T1 sequence (O00329 whole entry): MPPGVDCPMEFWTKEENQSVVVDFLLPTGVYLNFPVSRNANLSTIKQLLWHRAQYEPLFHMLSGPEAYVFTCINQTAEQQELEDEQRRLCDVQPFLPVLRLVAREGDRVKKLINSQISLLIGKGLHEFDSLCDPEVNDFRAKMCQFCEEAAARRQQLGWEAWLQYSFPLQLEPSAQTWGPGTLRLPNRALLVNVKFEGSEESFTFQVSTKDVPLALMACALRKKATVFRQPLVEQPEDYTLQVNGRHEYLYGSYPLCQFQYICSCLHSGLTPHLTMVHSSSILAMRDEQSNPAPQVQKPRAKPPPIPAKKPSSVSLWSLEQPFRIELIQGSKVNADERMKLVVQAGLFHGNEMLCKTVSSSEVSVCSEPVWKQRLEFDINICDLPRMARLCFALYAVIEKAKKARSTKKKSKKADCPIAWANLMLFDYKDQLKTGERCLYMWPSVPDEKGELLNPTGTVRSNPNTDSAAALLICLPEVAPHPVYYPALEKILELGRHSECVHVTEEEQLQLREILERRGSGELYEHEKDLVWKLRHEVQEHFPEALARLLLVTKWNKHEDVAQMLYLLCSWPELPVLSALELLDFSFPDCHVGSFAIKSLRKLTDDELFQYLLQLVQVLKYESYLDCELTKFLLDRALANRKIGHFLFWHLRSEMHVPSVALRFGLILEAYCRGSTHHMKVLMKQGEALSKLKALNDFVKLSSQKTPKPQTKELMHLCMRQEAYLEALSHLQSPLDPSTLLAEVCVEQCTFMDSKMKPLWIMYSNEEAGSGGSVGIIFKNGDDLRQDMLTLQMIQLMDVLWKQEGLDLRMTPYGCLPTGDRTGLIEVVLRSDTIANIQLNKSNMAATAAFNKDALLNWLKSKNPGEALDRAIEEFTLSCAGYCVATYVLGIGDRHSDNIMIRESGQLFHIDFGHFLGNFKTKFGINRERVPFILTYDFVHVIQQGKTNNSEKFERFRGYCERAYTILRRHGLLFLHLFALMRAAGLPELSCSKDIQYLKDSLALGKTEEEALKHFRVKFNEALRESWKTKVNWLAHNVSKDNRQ

Row | SMILES | IC50 [1] [nM] | IC50 [2] [nM] | IC50 [3] [nM]
1 | N#CC[C@]1(n2cc(-c3ncnc4[nH]ccc34)cn2)C[C@H](N2CCC(Oc3cc(CN4CC(O)C4)cc(C(F)(F)F)n3)CC2)C1 | < 100 |  | 
2 | N#CCC(C1CCN(c2nc3cccnc3o2)C1)n1cc(-c2ncnc3[nH]ccc23)cn1 (centres undefined) | < 100 |  | 
3 | N#CC[C@]1(n2cc(-c3ncnc4[nH]ccc34)cn2)C[C@H](N2CCN(C(=O)c3ccnc(C(F)(F)F)n3)CC2)C1 | < 100 |  | 
4 | CCNCc1cc(O[C@H]2CC[C@@H](N3CC(CC#N)(n4cc(-c5ncnc6[nH]ccc56)cn4)C3)CC2)nc(C(F)(F)F)c1 | < 100 |  | 
5 | N#CC[C@]1(n2cc(-c3ncnc4[nH]ccc34)cn2)C[C@H](N2CCC(Oc3cc(CN4CCC[C@@H]4CO)cc(C(F)(F)F)n3)CC2)C1 | < 100 |  | 
6 | Cc1cc(C(C)NC(=O)c2c(N)nn3cccnc23)c(-c2ccccc2)c2[nH]nc(C)c12 (centres undefined) |  | < 500 | < 2000
7 | N#CCC1(n2cc(-c3ncnc4[nH]ccc34)cn2)CN([C@H]2CC[C@@H](Oc3cc(CCO)nc(C(F)(F)F)n3)CC2)C1 | < 100 |  | 
8 | N#CC[C@]1(n2cc(-c3ncnc4[nH]ccc34)cn2)C[C@H](N2CCC(Oc3cc(CCO)cc(C(F)(F)F)n3)CC2)C1 | < 100 |  | 
9 | CC(NC(=O)c1c(N)nn2cccnc12)c1cc(C#N)c2cncn2c1-c1ccccc1 (centres undefined) |  | < 500 | < 500
10 | CC(NC(=O)c1c(N)nn2cccnc12)c1cc(Cl)c2cn(Cc3ccn(C)n3)nc2c1-c1ccccc1 (centres undefined) |  | < 500 | < 2000
11 | C[C@@H](O)c1nc2cnc3ccsc3c2n1[C@H]1CC[C@H](CC#N)OC1 | < 500 |  | 
12 | CCCC(NC(=O)c1c(N)nn2cccnc12)c1cc(Cl)c2cncn2c1N1CCS(=O)(=O)CC1 (centres undefined) |  | < 100 | < 100
13 | CC(NC(=O)c1c(N)nn2cccnc12)c1cc(Cl)c2cncn2c1-c1ccccc1 (centres undefined) |  | < 100 | < 100
14 | C[C@@H](O)CNCc1cc(OC2CCN([C@H]3C[C@](CC#N)(n4cc(-c5ncnc6[nH]ccc56)cn4)C3)CC2)nc(C(F)(F)F)c1 | < 100 |  | 
15 | N#CC[C@]1(n2cc(-c3ncnc4[nH]ccc34)cn2)C[C@H](N2CCC(Oc3cc(CN4CCC[C@H]4CO)cc(C(F)(F)F)n3)CC2)C1 | < 100 |  | 
16 | N#CCC1(n2cc(-c3ncnc4[nH]ccc34)cn2)CN([C@H]2CC[C@@H](Oc3cc(CN4CC[C@@H](O)C4)cc(C(F)(F)F)n3)CC2)C1 | < 100 |  | 
17 | CCOc1c(C(C)NC(=O)c2c(N)nn3cccnc23)cc(Cl)c2cn(CC)nc12 (centres undefined) |  | < 500 | < 2000
18 | N#CCC1(n2cc(-c3ncnc4[nH]ccc34)cn2)CN([C@H]2CC[C@@H](Oc3cc(CN4CC[C@H](O)C4)cc(C(F)(F)F)n3)CC2)C1 (single isomer, unassigned) | < 100 |  | 

Continued, values first:

Row | IC50 [1] [nM] | IC50 [2] [nM] | IC50 [3] [nM] | SMILES
19 | < 100 |  |  | N#CCC1(n2cc(-c3ncnc4[nH]ccc34)cn2)CN(C2CCN(C(=O)Nc3ccc(F)cc3C(F)(F)F)CC2)C1
20 | < 100 |  |  | N#CCC1(n2cc(-c3ncnc4[nH]ccc34)cn2)CN(C2CCN(C(=O)c3ccnc(C(F)(F)F)n3)CC2)C1
21 |  | < 500 | < 500 | CC(NC(=O)c1c(N)nn2cccnc12)c1cc(Cl)c2cn(CC(=O)N3CCOCC3)nc2c1-c1ccccc1 (centres undefined)
22 | < 100 |  |  | N#CCC(CN1CCN(C(=O)c2ccc(C#N)cc2F)CC1)n1ccc(-c2ncnc3[nH]ccc23)c1 (centres undefined)
23 |  | < 100 | < 100 | CC(NC(=O)c1c(N)nn2cccnc12)c1cc(Cl)c2cnn(CCN3CCOCC3)c2c1-c1ccccc1 (centres undefined)
24 |  | < 500 | < 500 | CCOc1c(C(C)NC(=O)c2c(N)nn3cccnc23)cc(Cl)c2cn(C)nc12 (centres undefined)
25 | < 100 |  |  | CC(C)(O)c1cc(O[C@H]2CC[C@@H](N3CC(CC#N)(n4cc(-c5ncnc6[nH]ccc56)cn4)C3)CC2)nc(C(F)(F)F)c1
26 |  | < 100 | < 2000 | CC(NC(=O)c1c(N)nn2cccnc12)c1cc(Cl)c2c(Br)n[nH]c2c1-c1ccccc1 (centres undefined)
27 |  | < 100 | < 100 | Cc1ncc2c(Cl)cc(C(C)NC(=O)c3c(N)nn4cccnc34)c(-c3cccc(F)c3)n12 (centres undefined)
28 | < 100 |  |  | C[C@@H](CO)NCc1cc(OC2CCN([C@H]3C[C@](CC#N)(n4cc(-c5ncnc6[nH]ccc56)cn4)C3)CC2)nc(C(F)(F)F)c1
29 |  | < 100 | < 500 | CC(NC(=O)c1c(N)nn2cccnc12)c1cc(Cl)c2cn[nH]c2c1-c1ccccc1 (centres undefined)
30 |  | < 100 | < 500 | Cc1n[nH]c2c(-c3ccccc3)c(C(C)NC(=O)c3c(N)nn4cccnc34)cc(Cl)c12 (centres undefined)
31 |  | < 100 | < 2000 | Cc1cc(C(C)NC(=O)c2c(N)nn3cccnc23)c(-c2cccc(F)c2)n2c(C)ncc12 (centres undefined)
32 | < 100 |  |  | C[C@H](NC(=O)c1cc(F)c(N2CC(CC#N)(n3cc(-c4ncnc5[nH]ccc45)cn3)C2)cc1F)C(F)(F)F
33 |  | < 100 | < 100 | CCOc1c(C(C)NC(=O)c2c(N)nn3cccnc23)cc(Cl)c2cnn(C)c12 (centres undefined)
34 | < 100 |  |  | N#CCC1(n2cc(-c3ncnc4[nH]ccc34)cn2)CN(C2CCN(C(=O)c3ccnc(C(F)(F)F)c3F)CC2)C1 [ITACITINIB]
